Results reported in PubChem BioAssay AID180 (DTP/NCI, 2004).
Where “and” joins values, the source holds several entries; their conditions need not be identical. Equal values may be shown once.

Tested on: BDF1 mice, Adenocarcinoma 755 s.c., tumor weight T/C
Assay: NCI In Vivo Anticancer Drug Screen. Data for tumor model Adenocarcinoma 755 (subcutaneous) in B6D2F1 (BDF1) mice
Conditions: endpoint: mean tumor weight, higher = larger tumour
Procedure, shortened: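 In vivo antitumor screen on a transplantable tumor line. Result equals the measure in compound-treated animals divided by the same measure in vehicle controls.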

With `Cn1cnc([N+](=O)[O-])c1Sc1ncnc2nc[nH]c12` the T/C (dose: 0.03 mg/kg/injection, schedule: Q01DX011 (oral), vehicle: other) was 79 % of control, the T/C (dose: 0.06 mg/kg/injection, schedule: Q01DX011 (oral), vehicle: other) was 63 % of control and the T/C (dose: 0.12 mg/kg/injection, schedule: Q01DX011 (oral), vehicle: other) was 48 % of control. For the same molecule, the T/C (dose: 0.25 mg/kg/injection, schedule: Q01DX006 (iv), vehicle: other) was 64 % of control, the T/C (dose: 0.25 mg/kg/injection, schedule: Q01DX011 (oral), vehicle: other) was 36 % of control and the T/C (dose: 0.5 mg/kg/injection, schedule: Q01DX006 (iv), vehicle: other) was 58 % of control. The T/C (dose: 0.5 mg/kg/injection, schedule: Q01DX011 (oral), vehicle: other) was 40 % of control, the T/C (dose: 1.0 mg/kg/injection, schedule: Q01DX006 (iv), vehicle: other) was 16 % of control and the T/C (dose: 1.0 mg/kg/injection, schedule: Q01DX011 (oral), vehicle: other) was 5 % of control and 10 % of control. For the same molecule, the T/C (dose: 2.0 mg/kg/injection, schedule: Q01DX006 (iv), vehicle: other) was 9 % of control, the T/C (dose: 2.0 mg/kg/injection, schedule: Q01DX011 (ip), vehicle: other) was 3 % of control and the T/C (dose: 2.5 mg/kg/injection, schedule: Q01DX011 (ip), vehicle: methylcellulose (MC)) was 15 % of control and 36 % of control. For the same molecule, the T/C (dose: 2.5 mg/kg/injection, schedule: Q01DX011 (oral), vehicle: other) was 2 % of control, the T/C (dose: 3.1 mg/kg/injection, schedule: Q01DX001 (ip), vehicle: other) was 56 % of control and the T/C (dose: 4.0 mg/kg/injection, schedule: Q01DX006 (iv), vehicle: other) was 3 % of control. For the same molecule, the T/C (dose: 4.0 mg/kg/injection, schedule: Q01DX011 (im), vehicle: other) was 3 % of control, the T/C (dose: 4.0 mg/kg/injection, schedule: Q01DX011 (iv), vehicle: other) was 17 % of control and the T/C (dose: 4.0 mg/kg/injection, schedule: Q01DX011 (sc), vehicle: other) was 1 % of control. The T/C (dose: 4.0 mg/kg/injection, schedule: Q#A X022 (ip), vehicle: other) was 2 % of control, the T/C (dose: 5.0 mg/kg/injection, schedule: Q01DX011 (ip), vehicle: methylcellulose (MC)) was 4 % of control and 7 % of control and the T/C (dose: 6.3 mg/kg/injection, schedule: Q01DX001 (ip), vehicle: other) was 52 % of control. For the same molecule, the T/C (dose: 8.0 mg/kg/injection, schedule: Q01DX011 (im), vehicle: other) was 1 % of control, the T/C (dose: 8.0 mg/kg/injection, schedule: Q01DX011 (iv), vehicle: other) was 2 % of control and the T/C (dose: 9.5 mg/kg/injection, schedule: Q01DX011 (ip), vehicle: methylcellulose (MC)) was 2 % of control and 8 % of control. For the same molecule, the T/C (dose: 10.0 mg/kg/injection, schedule: Q01DX011 (ip), vehicle: methylcellulose (MC)) was 4 % of control and 7 % of control, the T/C (dose: 12.0 mg/kg/injection, schedule: Q03DX004 (ip), vehicle: other) was 2 % of control and the T/C (dose: 12.5 mg/kg/injection, schedule: Q01DX001 (ip), vehicle: other) was 28 % of control. The T/C (dose: 16.0 mg/kg/injection, schedule: Q01DX011 (iv), vehicle: other) was 1 % of control, the T/C (dose: 19.0 mg/kg/injection, schedule: Q01DX011 (ip), vehicle: methylcellulose (MC)) was 2 % of control and the T/C (dose: 20.0 mg/kg/injection, schedule: Q01DX011 (oral), vehicle: other) was 7 % of control. The T/C (dose: 25.0 mg/kg/injection, schedule: Q01DX001 (ip), vehicle: other) was 1 % of control and 2 % of control and 20 % of control, the T/C (dose: 28.0 mg/kg/injection, schedule: Q07DX002 (ip), vehicle: other) was 17 % of control and the T/C (dose: 38.0 mg/kg/injection, schedule: Q01DX011 (ip), vehicle: methylcellulose (MC)) was 2 % of control. The T/C (dose: 40.0 mg/kg/injection, schedule: Q01DX011 (oral), vehicle: other) was 9 % of control, the T/C (dose: 50.0 mg/kg/injection, schedule: Q01DX001 (ip), vehicle: other) was 41 % of control and the T/C (dose: 56.0 mg/kg/injection, schedule: Q07DX002 (ip), vehicle: other) was 3 % of control. For the same molecule, the T/C (dose: 96.0 mg/kg/injection, schedule: Q03DX004 (ip), vehicle: other) was 1 % of control, the T/C (dose: 100.0 mg/kg/injection, schedule: Q01DX001 (ip), vehicle: other) was 1 % of control and the T/C (dose: 112.0 mg/kg/injection, schedule: Q07DX002 (ip), vehicle: other) was 8 % of control. For the same molecule, the T/C (dose: 200.0 mg/kg/injection, schedule: Q01DX001 (ip), vehicle: other) was 45 % of control.
